IC50 data for one molecule are collected here from patent publication US20260242349A1, “N,N'-SULFONIMIDAMIDES AS ANTICANCER, ANTIINFLAMMATORY, ANTIFIBROTIC AND NEUROPROTECTIVE AGENTS” (Atux Iskay LLC, priority 2023, published 2026).

For the test, the system named is D425 medulloblastoma cells. Description: Cancer cell viability inhibition (CellTiter-Glo Luminescent Cell Viability Assay). In kind it is cell-based. The note with it: 48 hours treatment, CellTiter-Glo luminescence, test range 1-30 uM, read-out: IC50 for D425 cell growth. Here is the method:
D425 medulloblastoma cells were purchased from SigmaAldrich. D425 meduloblastoma cells were cultured in improved Dulbecco's modified Eagle's medium (DMEM) Richter's modification supplemented with 20% fetal bovine serum and 1% Penicillin-streptomycin. Incubation was performed at 37° C. and 5% CO2.
D425 cells were seeded at 3000-3500 cells/90 ul growth medium per well on 96-well tissue culture plates. Cells were incubated overnight to allow them to recover. Next day cells were treated with tested compounds and incubated for 48 hours.
Cell Proliferation assays in triplicate were performed at each concentration. Compounds test range was 1-30 uM (0, 5, 10, 15, 20, 25, and 30). The compounds were dissolved in DMSO. […]
After treatment, cells were allowed to equilibrate at room temperature for one hour. Cell proliferation was measured by Luminescence quantification using Promega CellTiter-Glo Luminescent Cell Viability Assay. […] Luminescence intensity was measured using the Spectramax i3× plate reader.
The Luminescence intensity data were analyzed using the computer software Graphpad Prism. In the absence of the compound, the luminescence intensity (Lt) in each data set was defined as 100% cell viability. The percent cell in the presence of each compound was calculated according to the following equation: % Cell=L/Lt, were L=the luminescence intensity in the presence of the compound. […]

In the case of `N=S(=O)(Nc1ccc(OC(F)(F)F)cc1)N1CCCC(C2c3ccccc3CCc3ccccc32)C1` (stereo not shown) [Example 2], the IC50 (as a rule, the point on the concentration scale where inhibition reaches its midpoint) amounted to 9.4 µM.
